Test system: CRL 1730 HUVECs
Assay: Microarray transcriptomics of HUVEC (HGERT/HG, HG/NG)
Type: cell-based, human
[1] = HUVEC, 5 mM ERT + 30 mM glucose vs 30 mM glucose
[2] = Prostate cancer, 8MP signaling pathway
[3] = Prostate cancer, Calcium/calmodulin
[4] = Prostate cancer, Carbohydrate binding
[5] = Prostate cancer, DNA binding, second listing
[6] = Prostate cancer, ILK signaling (integrin linked kinase)
[7] = Prostate cancer, Reactive oxygen species
[8] = Prostate cancer, Tyrosine phosphatase activity
[9] = Prostate cancer, Zinc ion transport

OC[C@@H](O)[C@@H](O)CO [ERT, meso-1,2,3,4-tetrahydroxybutane]
Ψ 1.03: HGERT/HG PLEC1 (Plectin) (Prostate cancer, Actin binding) | HGERT/HG HNF1B (HNF1 homeobox B) (Prostate cancer, DNA binding) | HGERT/HG PIAS4 (Protein inhibitor of activated STAT, 4) (Prostate cancer, DNA binding) | HGERT/HG ZNF562 (Zinc finger protein 562) (Prostate cancer, DNA binding) | HGERT/HG PIAS4 (Protein inhibitor of activated STAT, 4) [5]
Ψ 1.06: HGERT/HG SOS1 (Son of sevenless homolog 1 (Drosophila)) (Prostate cancer, DNA binding)
Ψ 1.02: HGERT/HG transcript ZNF318 [1] | HGERT/HG GJC1 (Gap junction protein, gamma 1, 45kDa) [3] | HGERT/HG EXTL3 (Exostoses (multiple)-like 3) [4] | HGERT/HG GCS2 (Mannosyl-oligosaccharide glucosidase) [4] | HGERT/HG BBX (Bobby sox homolog (Drosophilia)) (Prostate cancer, DNA binding) | HGERT/HG DEAF1 (Deformed epidermal autoregulatory factor 1 (Drosophila)) (Prostate cancer, DNA binding) | HGERT/HG MXD4 (MAX dimerization protein 4) (Prostate cancer, DNA binding) | HGERT/HG POLO1 (Polymerase (DNA directed), delta 1, catalytic subunit 125kDa) (Prostate cancer, DNA binding) | HGERT/HG T8RG1 (Transforming growth factor beta regulator 1) (Prostate cancer, DNA binding) | HGERT/HG UBN1 (Ubinuclein 1) (Prostate cancer, DNA binding) | HGERT/HG FBUM1 (Gene ID 54751) [6] | HGERT/HG RHOB (Ras homolog gene family, member B) [6] | HGERT/HG RHOJ (Ras homolog gene family, member J) [6]
0.97 Ω: HGERT/HG SOAT1 (Sterol O-acyltransferase 1) (Prostate cancer, Sterol metabolism)
0.99: HGERT/HG transcript U8A3 [1] | HGERT/HG transcript VPS26A [1] | HGERT/HG transcript ZNF59B [1]
1.00 Ω: HGERT/HG transcript VIM [1] | HGERT/HG transcript YME1L1 [1] | HGERT/HG VIM (Vimentin) [6]
0.94 Ω: HGERT/HG CORO1A (Coronin, actin binding protein, 1A) (Prostate cancer, Actin binding)
0.99 Ω: HGERT/HG transcript VPS4B [1] | HGERT/HG UBE2D1 (Ubiquitin-conjugating enzyme E2D1 (U8C4/5 homolog, yeast)) [2] | HGERT/HG C6orf66 (NADH dehydrogenase (ubiquinone) 1 alpha subcomplex, assembly factor 4) [3] | HGERT/HG SLC25A24 (Solute carrier family 25 (mitochondrial carrier; phosphate carrier), member 24) [3] | HGERT/HG C10orf125 (Chromosome 10 open reading frame 125) [4] | HGERT/HG GPBP1 (GC-rich promoter binding protein 1) (Prostate cancer, DNA binding) | HGERT/HG HBP1 (HMG-box transcription factor 1) (Prostate cancer, DNA binding) | HGERT/HG KIN (KIN, antigenic determinant of recA protein homolog (mouse)) (Prostate cancer, DNA binding) | HGERT/HG RABGEF1 (RAB guanine nucleotide exchange factor (GEF) 1) (Prostate cancer, DNA binding) | HGERT/HG RNF11 (Ring finger protein 11) (Prostate cancer, DNA binding) | HGERT/HG RPA3 (Replication protein A3, 14kDa) (Prostate cancer, DNA binding) | HGERT/HG TCF12 (Transcription factor 12) (Prostate cancer, DNA binding) | HGERT/HG TRIM26 (Tripartite motif-containing 26) (Prostate cancer, DNA binding) | HGERT/HG ZNFT84 (Zinc finger protein 784) (Prostate cancer, DNA binding) | HGERT/HG pdcd6 (Aryl-hydrocarbon receptor repressor) (Prostate cancer, DNA binding) | HGERT/HG RNF11 (Ring finger protein 11) [5] | HGERT/HG RSU1 (Ras suppressor protein 1) [6] | HGERT/HG COX8A (Cytochrome c oxidase subunit VIIIA (ubiquitous)) [7] | HGERT/HG MPHOSPH6 (M-phase phosphoprotein 6) [7] | HGERT/HG SMOX (Spermine oxidase) [7] | HGERT/HG TCF12 (Transcription factor 12) [7] | HGERT/HG DUSP23 (Dual specificity phosphatase 23) [8] | HGERT/HG SLC30A6 (Solute carrer family 30 (zinc transporter), member 6) [9] | HGERT/HG SLC30A9 (Solute carrer family 30 (zinc transporter), member 9) [9]
Ψ 1.01: HGERT/HG transcript TXNDC11 [1] | HGERT/HG transcript USP22 [1] | HGERT/HG transcript WDFY2 [1] | HGERT/HG BMP6 (Bone morphogenetic protein 6) [2] | HGERT/HG HPCAL1 (Hippocalcin-like 1) [3] | HGERT/HG SEC31A (SEC31 homolog A (S. cerevisiae)) [3] | HGERT/HG ADAR (Adenosine deaminase, RNA-specific) (Prostate cancer, DNA binding) | HGERT/HG ATF6 (Activating transcription factor 6) (Prostate cancer, DNA binding) | HGERT/HG DBT (Dihydrolipoamide branched chain transacylase E2) (Prostate cancer, DNA binding) | HGERT/HG FOXC1 (Forkhead box C1) (Prostate cancer, DNA binding) | HGERT/HG FOXN3 (Forkhead box N3) (Prostate cancer, DNA binding) | HGERT/HG FOXP1 (Forkhead box P1) (Prostate cancer, DNA binding) | HGERT/HG GZF1 (GDNF-inducible zinc finger protein 1) (Prostate cancer, DNA binding) | HGERT/HG PCBP1 (Poly(rC) binding protein 1) (Prostate cancer, DNA binding) | HGERT/HG POLG (Polymerase (DNA directed), gamma) (Prostate cancer, DNA binding) | HGERT/HG PRRX1 (Paired related homeobox 1) (Prostate cancer, DNA binding) | HGERT/HG PUF60 (Poly-U binding splicing factor 60KDa) (Prostate cancer, DNA binding) | HGERT/HG RYBP (RING1 and YY1 binding protein) (Prostate cancer, DNA binding) | HGERT/HG SOX4 (SRY (sex determining region Y)-box 4) (Prostate cancer, DNA binding) | HGERT/HG TCF25 (Transcription factor 25 (basic helix-loop-helix)) (Prostate cancer, DNA binding) | HGERT/HG TOX4 (TOX high mobility group box family member 4) (Prostate cancer, DNA binding) | HGERT/HG TTF1 (Transcription termination factor, RNA polyrnerase 1) (Prostate cancer, DNA binding) | HGERT/HG ZBED3 (Zinc finger, BED-type containing 3) (Prostate cancer, DNA binding) | HGERT/HG ZNF232 (Zinc finger protein 232) (Prostate cancer, DNA binding) | HGERT/HG RYBP (RING1 and YY1 binding protein) [5] | HGERT/HG TTF1 (Transcription termination factor, RNA polymerase 1) [5] | HGERT/HG JUP (Junction plakoglobin) (Prostate cancer, Endothelial cell-cell adhesion) | HGERT/HG ACTN1 (Actinin, alpha 1) [6] | HGERT/HG PXN (Paxillin) [6] | HGERT/HG JUP (Junction plakaglobin) [7] | HGERT/HG PTPLAD1 (Protein tyrosine phosphatase-like A domain containing 1) [8] | HGERT/HG SLC39A13 (Solute carrer family 39 (zinc transporter), member 13) [9]
Ψ 1.00: HGERT/HG CIB1 (Calcium and integrin binding 1 (calmyrin)) [3]
0.98 Ω: HGERT/HG transcript TRIT1 [1] | HGERT/HG transcript ZMYM1 [1] | HGERT/HG B4GALT4 (UDP-Gal:betaGlcNAc beta 1,4-galactosyltransferase, polypeptide 4) [4] | HGERT/HG FOXN2 (Forkhead box N2) (Prostate cancer, DNA binding) | HGERT/HG HKR1 (HKR1, GU-Kruppel zinc finger family member) (Prostate cancer, DNA binding) | HGERT/HG MRRF (Mitochondrial ribosome recycling factor) (Prostate cancer, DNA binding) | HGERT/HG POLR2K (Polymerase (RNA) II (DNA directed) polypeptide K, 7.0kDa) (Prostate cancer, DNA binding) | HGERT/HG POLR3F (Polymerase (RNA) III (DNA directed) polypeptide F, 39 kDa) (Prostate cancer, DNA binding) | HGERT/HG SARNP (SAP domain containing ribonucleoprotein) (Prostate cancer, DNA binding) | HGERT/HG ZNF83 (Zinc finger protein 83) (Prostate cancer, DNA binding) | HGERT/HG ZNF267 (Zinc finger protein 267) (Prostate cancer, DNA binding) | HGERT/HG ZNF614 (Zinc finger protein 614) (Prostate cancer, DNA binding) | HGERT/HG SDHD (Succinate dehydrogenase complex, subunit D, integral membrane protein) [7] | HGERT/HG PAQR3 (Progestin and adipoQ receptor family member III) (Prostate cancer, Receptor activity) | HGERT/HG PGRMC2 (Progesterone receptor membrane component 2) (Prostate cancer, Steroid hormone receptor activity)
